The source made the active and inactive calls. The calls are words filed in the database; no cut-off is given here.
Experiments:
[1] = target: T1, Histamine H3 receptor (Homo sapiens, UniProt Q9Y5N1); test: Displacement of [3H]NAMH from human H3R expressed in CHO cells; type: cell-based
Target sequence in this assay (Q9Y5N1 whole entry): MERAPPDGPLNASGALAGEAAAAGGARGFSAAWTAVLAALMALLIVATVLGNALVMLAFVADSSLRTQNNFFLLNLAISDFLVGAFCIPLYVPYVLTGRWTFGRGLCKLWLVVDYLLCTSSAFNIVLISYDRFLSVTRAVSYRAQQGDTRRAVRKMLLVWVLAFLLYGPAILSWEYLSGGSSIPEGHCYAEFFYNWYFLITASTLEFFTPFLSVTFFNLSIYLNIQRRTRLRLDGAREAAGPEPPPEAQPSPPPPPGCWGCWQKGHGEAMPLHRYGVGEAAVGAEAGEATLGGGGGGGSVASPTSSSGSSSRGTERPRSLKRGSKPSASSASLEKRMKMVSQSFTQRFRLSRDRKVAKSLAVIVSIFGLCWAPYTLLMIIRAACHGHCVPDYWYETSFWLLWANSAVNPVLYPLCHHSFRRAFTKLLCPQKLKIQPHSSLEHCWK

[2] = target: Histamine H3 receptor (Rattus norvegicus, UniProt Q9QYN8); test: Displacement of [3H]NAMH from rat H3R expressed in CHO cells; type: cell-based
[3] = target: T1, Histamine H3 receptor; test: Inverse agonist activity at human H3R expressed in CHO cells assessed as inhibition of R-alpha-methylhistamine-induced [35S]GTPgammaS binding; type: functional, cell-based
Target sequence in this assay (Q9Y5N1 whole entry): as above

[4] = Metabolic stability in mouse liver microsomes assessed as half life; type: ADME, Microsome
[5] = Metabolic stability in rat liver microsomes assessed as half life; type: ADME, Microsome
[6] = Metabolic stability in dog liver microsomes assessed as half life; type: ADME, Canis lupus familiaris, Microsome
[7] = Metabolic stability in human liver microsomes assessed as half life; type: ADME, Microsome
[8] = target: T2, Cytochrome P450 1A2 (Homo sapiens, UniProt P05177); test: Inhibition of CYP1A2; type: ADME
T2 sequence (P05177 whole entry): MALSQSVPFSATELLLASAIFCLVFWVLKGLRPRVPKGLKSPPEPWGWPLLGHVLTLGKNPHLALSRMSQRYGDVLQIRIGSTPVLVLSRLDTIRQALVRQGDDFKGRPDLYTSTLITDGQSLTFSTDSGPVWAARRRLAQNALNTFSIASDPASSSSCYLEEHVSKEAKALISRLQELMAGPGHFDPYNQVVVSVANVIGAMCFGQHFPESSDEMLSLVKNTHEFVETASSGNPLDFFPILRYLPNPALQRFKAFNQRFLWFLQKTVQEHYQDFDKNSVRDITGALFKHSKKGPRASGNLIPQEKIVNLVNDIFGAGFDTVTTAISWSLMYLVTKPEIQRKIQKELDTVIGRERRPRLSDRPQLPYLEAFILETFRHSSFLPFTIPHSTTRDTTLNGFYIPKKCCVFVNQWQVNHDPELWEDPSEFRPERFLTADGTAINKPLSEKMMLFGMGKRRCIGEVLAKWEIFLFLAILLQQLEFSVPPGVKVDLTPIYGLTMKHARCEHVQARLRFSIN

[9] = target: Cytochrome P450 2C9 (Homo sapiens, UniProt P11712); test: Inhibition of CYP2C9; type: ADME
Sequence of Cytochrome P450 2C9 (P11712 whole entry): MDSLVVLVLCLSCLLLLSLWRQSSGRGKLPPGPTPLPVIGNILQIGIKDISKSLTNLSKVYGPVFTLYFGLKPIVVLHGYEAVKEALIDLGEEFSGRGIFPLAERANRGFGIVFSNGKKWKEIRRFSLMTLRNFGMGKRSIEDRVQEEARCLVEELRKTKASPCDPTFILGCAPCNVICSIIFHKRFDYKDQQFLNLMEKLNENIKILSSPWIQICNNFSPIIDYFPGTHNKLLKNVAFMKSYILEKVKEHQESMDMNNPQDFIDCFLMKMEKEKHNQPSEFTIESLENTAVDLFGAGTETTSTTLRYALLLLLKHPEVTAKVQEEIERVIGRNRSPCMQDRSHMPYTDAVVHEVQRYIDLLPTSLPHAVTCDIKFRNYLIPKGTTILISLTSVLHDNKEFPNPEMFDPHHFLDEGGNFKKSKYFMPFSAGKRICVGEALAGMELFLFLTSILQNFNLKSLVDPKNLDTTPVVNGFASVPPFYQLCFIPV

[10] = target: Cytochrome P450 2C19 (Homo sapiens, UniProt P33261); test: Inhibition of CYP2C19; type: ADME
Sequence of Cytochrome P450 2C19 (P33261 whole entry): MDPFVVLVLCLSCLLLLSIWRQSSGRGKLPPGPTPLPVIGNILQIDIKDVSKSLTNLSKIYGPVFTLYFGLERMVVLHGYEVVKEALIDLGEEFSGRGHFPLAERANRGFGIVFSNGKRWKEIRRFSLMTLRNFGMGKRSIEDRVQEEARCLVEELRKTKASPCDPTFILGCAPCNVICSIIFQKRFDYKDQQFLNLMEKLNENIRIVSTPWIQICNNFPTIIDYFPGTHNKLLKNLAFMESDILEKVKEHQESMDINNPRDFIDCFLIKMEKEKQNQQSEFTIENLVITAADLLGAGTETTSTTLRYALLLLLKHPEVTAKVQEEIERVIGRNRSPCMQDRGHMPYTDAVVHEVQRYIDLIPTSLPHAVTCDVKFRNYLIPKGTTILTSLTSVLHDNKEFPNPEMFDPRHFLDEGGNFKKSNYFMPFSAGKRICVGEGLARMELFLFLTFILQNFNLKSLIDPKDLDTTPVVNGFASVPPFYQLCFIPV

[11] = target: Cytochrome P450 2D6 (Homo sapiens, UniProt P10635); test: Inhibition of CYP2D6; type: ADME
Sequence of Cytochrome P450 2D6 (P10635 whole entry): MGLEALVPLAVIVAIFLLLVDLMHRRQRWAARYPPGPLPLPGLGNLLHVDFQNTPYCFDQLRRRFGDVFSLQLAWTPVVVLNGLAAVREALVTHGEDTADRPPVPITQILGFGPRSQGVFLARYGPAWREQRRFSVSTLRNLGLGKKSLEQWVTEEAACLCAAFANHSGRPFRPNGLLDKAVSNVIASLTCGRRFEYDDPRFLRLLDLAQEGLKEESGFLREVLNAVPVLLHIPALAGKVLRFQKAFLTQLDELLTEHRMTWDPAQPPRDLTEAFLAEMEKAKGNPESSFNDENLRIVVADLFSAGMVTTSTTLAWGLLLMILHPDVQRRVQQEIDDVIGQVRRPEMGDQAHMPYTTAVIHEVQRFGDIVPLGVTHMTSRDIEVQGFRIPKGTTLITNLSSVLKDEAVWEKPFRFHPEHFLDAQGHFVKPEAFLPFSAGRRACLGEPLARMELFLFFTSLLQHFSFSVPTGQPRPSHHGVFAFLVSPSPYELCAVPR

[12] = target: Cytochrome P450 3A4 (Homo sapiens, UniProt P08684); test: Inhibition of CYP3A4; type: ADME
Sequence of Cytochrome P450 3A4 (P08684 whole entry): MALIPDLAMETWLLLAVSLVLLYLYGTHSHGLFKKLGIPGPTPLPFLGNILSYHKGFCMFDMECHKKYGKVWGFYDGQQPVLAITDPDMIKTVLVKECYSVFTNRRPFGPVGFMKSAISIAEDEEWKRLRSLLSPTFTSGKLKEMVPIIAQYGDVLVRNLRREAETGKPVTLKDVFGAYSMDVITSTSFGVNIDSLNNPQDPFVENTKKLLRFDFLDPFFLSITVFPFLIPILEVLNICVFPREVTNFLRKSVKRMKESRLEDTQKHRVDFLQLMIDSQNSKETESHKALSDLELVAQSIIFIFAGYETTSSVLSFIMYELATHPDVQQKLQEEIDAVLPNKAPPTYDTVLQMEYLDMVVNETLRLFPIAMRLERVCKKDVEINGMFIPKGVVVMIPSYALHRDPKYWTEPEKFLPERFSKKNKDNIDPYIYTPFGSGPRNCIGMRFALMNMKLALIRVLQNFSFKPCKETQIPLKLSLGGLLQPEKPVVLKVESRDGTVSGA

[13] = target: Histamine H1 receptor (Homo sapiens) (UniProt P35367); test: Inhibition of human H1R at 10 uM
Sequence of Histamine H1 receptor (Homo sapiens) (P35367 whole entry): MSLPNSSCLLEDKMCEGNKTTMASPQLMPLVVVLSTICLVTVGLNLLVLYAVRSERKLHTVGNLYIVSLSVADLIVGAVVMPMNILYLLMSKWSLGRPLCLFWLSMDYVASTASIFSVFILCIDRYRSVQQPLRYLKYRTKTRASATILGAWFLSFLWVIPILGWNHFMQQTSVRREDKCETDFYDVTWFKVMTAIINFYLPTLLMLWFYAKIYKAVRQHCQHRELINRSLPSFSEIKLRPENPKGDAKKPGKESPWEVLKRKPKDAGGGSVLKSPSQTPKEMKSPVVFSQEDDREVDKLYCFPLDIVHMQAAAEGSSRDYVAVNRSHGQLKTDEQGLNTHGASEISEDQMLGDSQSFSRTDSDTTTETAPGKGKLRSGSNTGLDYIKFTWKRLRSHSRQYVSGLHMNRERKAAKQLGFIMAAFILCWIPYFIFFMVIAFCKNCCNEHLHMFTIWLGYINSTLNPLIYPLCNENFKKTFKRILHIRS

[14] = target: Histamine H2 receptor (Homo sapiens) (UniProt P25021); test: Inhibition of human H2R at 10 uM
Sequence of Histamine H2 receptor (Homo sapiens) (P25021 whole entry): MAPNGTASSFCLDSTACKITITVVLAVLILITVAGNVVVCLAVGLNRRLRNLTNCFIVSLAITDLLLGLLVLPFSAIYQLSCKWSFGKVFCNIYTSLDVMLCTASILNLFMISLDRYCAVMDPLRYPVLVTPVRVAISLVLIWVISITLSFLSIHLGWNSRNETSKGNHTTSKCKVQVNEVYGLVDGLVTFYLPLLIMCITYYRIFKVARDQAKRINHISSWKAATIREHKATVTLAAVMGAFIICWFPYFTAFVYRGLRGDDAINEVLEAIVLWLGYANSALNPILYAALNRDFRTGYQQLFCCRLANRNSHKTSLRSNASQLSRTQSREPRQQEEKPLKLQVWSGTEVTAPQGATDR

[15] = target: Histamine H4 receptor (Homo sapiens) (UniProt Q9H3N8); test: Inhibition of human H4R at 10 uM
Sequence of Histamine H4 receptor (Homo sapiens) (Q9H3N8 whole entry): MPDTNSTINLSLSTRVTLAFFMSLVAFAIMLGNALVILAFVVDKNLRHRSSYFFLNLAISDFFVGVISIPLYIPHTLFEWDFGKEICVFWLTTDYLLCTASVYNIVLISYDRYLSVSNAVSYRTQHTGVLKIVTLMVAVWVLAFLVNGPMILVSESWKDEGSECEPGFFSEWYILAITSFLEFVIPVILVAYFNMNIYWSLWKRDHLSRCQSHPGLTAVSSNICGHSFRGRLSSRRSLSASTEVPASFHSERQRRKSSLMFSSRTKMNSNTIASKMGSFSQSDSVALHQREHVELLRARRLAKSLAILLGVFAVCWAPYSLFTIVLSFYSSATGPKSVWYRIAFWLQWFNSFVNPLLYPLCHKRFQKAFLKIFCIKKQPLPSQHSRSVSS

[16] = AUC (0 to infinity) in rat at 1 mg/kg, iv; type: ADME, organism-based; parameters: time infinity, dose 1 mg/kg, route intravenous; conditions: plasma
[17] = Half life in rat at 1 mg/kg, iv; type: ADME, organism-based; parameters: dose 1 mg/kg, route intravenous; conditions: in vivo
[18] = Volume of distribution in rat at 1 mg/kg, iv; type: ADME, organism-based; parameters: dose 1 mg/kg, route intravenous; conditions: in vivo
[19] = Clearance in rat at 1 mg/kg, iv; type: ADME, organism-based; parameters: dose 1 mg/kg, route intravenous; conditions: in vivo
[20] = AUC (0 to infinity) in rat at 5 mg/kg, po; type: ADME, organism-based; parameters: time infinity, dose 5 mg/kg, route oral; conditions: plasma
[21] = Cmax in rat at 5 mg/kg, po; type: ADME, organism-based; parameters: dose 5 mg/kg, route oral; conditions: in vivo
[22] = Oral bioavailability in rat at 5 mg/kg; type: ADME, organism-based; conditions: in vivo
[23] = Ratio of drug level from brain to plasma of rat at 10 mg/kg, ip after 1 hr; type: ADME, organism-based; parameters: dose 10 mg/kg, route intraperitoneal; conditions: read-out: BPR
[24] = Aqueous solubility of the compound at pH 2; type: physicochemical; conditions: buffer
[25] = Aqueous solubility of the compound at pH 7.4; type: physicochemical; conditions: buffer
[26] = system: Rattus norvegicus; test: Inhibition of R-alpha-methylhistamine-induced water intake in ip dosed rat dipsogenia model; type: functional
[27] = system: Rattus norvegicus; test: Wake promoting activity in Sprague-Dawley rat EEG/EMG model assessed as cumulative wake time at 10 mg/kg, ip; type: functional; conditions: route intraperitoneal
[28] = system: Rattus norvegicus; test: Wake promoting activity in Sprague-Dawley rat EEG/EMG model assessed as increase in cumulative wake time at 30 mg/kg, ip up to 4 hrs; type: functional; conditions: route intraperitoneal
[29] = system: Rattus norvegicus; test: Wake promoting activity in Sprague-Dawley rat EEG/EMG model assessed as increase in cumulative wake time at 30 mg/kg, ip up to 7.5 hrs; type: functional, organism-based; parameters: dose 30 mg/kg
[30] = system: Rattus norvegicus; test: Wake promoting activity in Sprague-Dawley rat EEG/EMG model assessed as sleep rebound at 3 to 30 mg/kg, ip up to 22 hrs; type: functional, organism-based
[31] = system: Rattus norvegicus; test: Toxicity in Sprague-Dawley rat EEG/EMG model assessed as EEG abnormality at 3 to 30 mg/kg, ip; type: organism-based; parameters: dose 3-30 mg/kg, route intraperitoneal; conditions: in vivo
[32] = target: T1, Histamine H3 receptor; test: Antagonist activity at human H3R expressed in CHO cells assessed as inhibition of R-alpha-methylhistamine-induced [35S]GTPgammaS binding; type: functional, cell-based
Target sequence in this assay (Q9Y5N1 whole entry): as the sequence (Q9Y5N1 whole entry) above

[33] = target: T1, Histamine H3 receptor; test: Antagonist activity at human H3R expressed in CHO cells assessed as inhibition of R-alpha-methylhistamine-induced [35S]GTPgammaS binding
Target sequence in this assay (Q9Y5N1 whole entry, looked up): as the sequence (Q9Y5N1 whole entry) above

[34] = system: Rattus norvegicus; test: Wake promoting activity in ip dosed Sprague-Dawley rat EEG/EMG model assessed as cumulative wake time; type: functional, organism-based
[35] = system: Rattus norvegicus; test: Wake promoting activity in Sprague-Dawley rat EEG/EMG model assessed as increase in cumulative wake time at 30 mg/kg, ip up to 4.5 hrs; type: functional, organism-based; parameters: dose 30 mg/kg
[36] = system: Rattus norvegicus; test: Wake promoting activity in Sprague-Dawley rat EEG/EMG model assessed as cumulative wake time at 30 mg/kg, ip after 7 hrs; type: functional; conditions: route intraperitoneal
[37] = system: Rattus norvegicus; test: Wake promoting activity in Sprague-Dawley rat EEG/EMG model assessed as cumulative wake time at 30 mg/kg, ip; type: functional; conditions: route intraperitoneal
[38] = system: Rattus norvegicus; test: Wake promoting activity in Sprague-Dawley rat EEG/EMG model assessed as sleep rebound at 3 to 30 mg/kg, ip; type: functional, organism-based
[39] = system: Rattus norvegicus; test: Wake promoting activity in Sprague-Dawley rat EEG/EMG model assessed as increase in cumulative wake time at 30 mg/kg, ip relative to vehicle treated animals; type: functional; conditions: route intraperitoneal

Sequence of Histamine H3 receptor (Rattus norvegicus, UniProt Q9QYN8) (Q9QYN8 whole entry): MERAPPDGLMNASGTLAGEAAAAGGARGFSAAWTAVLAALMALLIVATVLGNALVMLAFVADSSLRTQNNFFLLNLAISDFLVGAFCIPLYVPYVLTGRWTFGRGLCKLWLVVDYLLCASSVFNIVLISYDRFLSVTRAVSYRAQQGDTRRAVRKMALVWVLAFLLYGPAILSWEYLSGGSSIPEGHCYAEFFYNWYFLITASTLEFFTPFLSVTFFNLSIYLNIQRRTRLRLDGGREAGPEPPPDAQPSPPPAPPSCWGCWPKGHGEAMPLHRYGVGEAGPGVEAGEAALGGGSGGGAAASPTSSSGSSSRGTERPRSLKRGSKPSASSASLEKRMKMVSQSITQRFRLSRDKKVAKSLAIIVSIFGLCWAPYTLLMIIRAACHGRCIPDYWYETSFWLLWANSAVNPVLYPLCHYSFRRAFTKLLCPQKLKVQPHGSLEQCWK

SMILES: Cn1nc(-c2ccc(CCN3CCCC3)cc2)ccc1=O
- Ki [1]: 83 nM
- Ki [2]: 135 nM

SMILES: C[C@@H]1CCCN1CCc1ccc(-c2ccc(=O)n(-c3ccc(Cl)cc3)n2)cc1
- Ki [1]: 8 nM
- Ki [2]: 26 nM

SMILES: C[C@@H]1CCCN1CCc1ccc(-c2ccc(=O)n(Cc3ccccc3)n2)cc1
- Ki [1]: 5 nM
- Ki [2]: 18 nM

SMILES: C[C@@H]1CCCN1CCc1ccc(-c2ccc(=O)[nH]n2)cc1
- Ki [1]: 31 nM
- Ki [2]: 43 nM

SMILES: C[C@@H]1CCCN1CCc1ccc(-c2ccc(=O)n(-c3ccc(F)cc3)n2)cc1
- EC50 [3]: 2.1 nM
- half-life [4]: > 40 min
- half-life [5]: > 40 min
- half-life [6]: > 40 min
- half-life [7]: > 40 min
- IC50 [8]: > 30000 nM
- IC50 [9]: > 30000 nM
- IC50 [10]: > 30000 nM
- IC50 [11]: > 30000 nM
- IC50 [12]: > 30000 nM
- inhibition [13]: < 30%
- inhibition [14]: < 30%
- inhibition [15]: < 30%
- AUC(0-inf) [16]: 1300 ng·h/mL
- half-life [17]: 138 min
- Vd [18]: 4.8 L/kg
- clearance [19]: 21 mL/min/kg
- AUC(0-inf) [20]: 1730 ng·h/mL
- Cmax [21]: 255 ng/mL
- bioavailability [22]: 27%
- Kp at 1 h [23]: 11
- solubility [24]: > 125 µg/mL
- solubility [25]: > 125 µg/mL
- ED50 [26]: 0.02 mg/kg
- inhibition [26]: Dose-dependent effect
- Time [27]: 207 min
- Activity [28]: 94%
- Activity [29]: Active
- Activity [30]: inactive
- Activity [31]: Non-toxic
- Ki [1]: 13 nM
- Ki [2]: 48 nM
- Activity [32]: Active
- Activity [33]: Active

SMILES: C[C@@H]1CCCN1CCc1ccc(-c2ccc(=O)n(C)n2)cc1
- EC50 [3]: 2 nM
- half-life [4]: 25 min
- half-life [5]: 39 min
- half-life [6]: > 40 min
- half-life [7]: > 40 min
- IC50 [8]: > 30000 nM
- IC50 [9]: > 30000 nM
- IC50 [10]: > 30000 nM
- IC50 [11]: > 30000 nM
- IC50 [12]: > 30000 nM
- inhibition [13]: < 30%
- inhibition [14]: < 30%
- inhibition [15]: < 30%
- AUC(0-inf) [16]: 1650 ng·h/mL
- half-life [17]: 30 min
- Vd [18]: 0.6 L/kg
- clearance [19]: 12 mL/min/kg
- AUC(0-inf) [20]: 28 ng·h/mL
- Cmax [21]: 18 ng/mL
- bioavailability [22]: < 1%
- Kp at 1 h [23]: 6
- ED50 [26]: 0.07 mg/kg
- inhibition [26]: Dose-dependent effect
- Time [34]: Dose-dependent effect
- Time [27]: 161 min
- Activity [35]: Active
- Time [36]: 200 min
- Time [37]: 235 min
- Activity [38]: inactive
- Activity [28]: 98%
- Activity [39]: 68%
- Activity [31]: Non-toxic
- Ki [1]: 7 nM
- Ki [2]: 58 nM
- Activity [32]: Active
- Activity [33]: Active

SMILES: C[C@@H]1CCCN1CCCOc1ccc(-c2ccc(=O)[nH]n2)cc1 [IRDABISANT]
- Ki [2]: 7 nM

SMILES: C[C@@H]1CCCN1CCc1ccc(-c2ccc(=O)n(-c3ccccc3)n2)cc1
- Ki [1]: 34 nM
- Ki [2]: 42 nM

SMILES: C[C@@H]1CCCN1CCc1ccc(-c2ccc(=O)n(-c3ccccn3)n2)cc1
- Ki [1]: 47 nM
- Ki [2]: 242 nM
